Changes are numbered by the printed parent chain. Where “and” joins values, the source holds several entries; their conditions need not be identical. Equal values may be shown once.
Columns and labels:
HT1080 cells = assay: Cell viability assay (AquaBluer); type: cell-based, human
Description: Cell viability was assessed using AquaBluer according to the manufacturer’s recommendations (MultiTarget Pharmaceuticals, LLC). Fluorescence (excitation: 540 nm; emission: 590 nm) was analyzed on a Clariostar microplater reader.

murine PGP = molecular target: T1, murine PGP (Mus musculus, UniProt Q8CHP8); assay: SAR: CP1, CP2 and analogs on PGP phosphatase activity (PG); type: biochemical; parameters: His6 (N, cleaved yes); made in house; host or cells: Escherichia coli BL21 (DE3), pETM11, co-expressed with groES-groEL-tig
T1 sequence (Q8CHP8 1-321): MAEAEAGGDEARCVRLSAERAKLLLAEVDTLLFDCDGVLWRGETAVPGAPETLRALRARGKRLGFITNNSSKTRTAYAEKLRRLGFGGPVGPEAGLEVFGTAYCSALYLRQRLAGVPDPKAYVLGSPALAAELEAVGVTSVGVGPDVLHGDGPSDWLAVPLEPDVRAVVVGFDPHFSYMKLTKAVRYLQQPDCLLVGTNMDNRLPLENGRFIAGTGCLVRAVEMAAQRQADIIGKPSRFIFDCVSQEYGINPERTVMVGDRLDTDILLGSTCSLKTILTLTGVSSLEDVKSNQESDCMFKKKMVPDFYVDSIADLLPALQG
Description: However, the DMSO concentration was kept constant across each assay. For SAR experiments, all compound stocks were prepared at 10 mM in 100% DMSO. A constant final DMSO concentration of 0.4% was maintained under all conditions, and solvent control samples contained 0.4% DMSO without compounds.
PGP phosphatase activity were assessed using recombinant, purified murine PGP and PG as a

[1] = molecular target: T2, murine PGP-WT / PGP-C297S (Mus musculus, UniProt Q8CHP8); assay: Size-exclusion chromatography, PGP self-association; conditions: SEC, PGP-WT 30 µM; CP1 100 µM
T2 construct: His6 (N, cleaved yes); made in house; host or cells: Escherichia coli BL21 (DE3)
T2 sequence (Q8CHP8 1-321): T1 sequence (Q8CHP8 1-321)
Description: (§1) A volume of 900 µL was loaded onto a Superdex 200 10/300GL (Cytiva) size exclusion chromatography column operated on an ÄKTA liquid chromatography system.
(§2) Error bars not shown are hidden by the symbols. (c) PGP self-association in the absence or presence of CP1. Size- exclusion chromatography (SEC) of purified, recombinant murine PGP-WT in comparison to PGP-C297 […]
(§3) (1 picture or pasted object on this page, not shown here)
(§4) (100 µM). SEC profiles of PGP -WT are the mean of n=3 independent experiments; PGP -C297S […]
(§5) independent experiments. Statistical testing was done using a two-sided t-test, and the p- value

[2] = molecular target: T3, murine PGP-WT / PGP-C297S (Mus musculus, UniProt Q8CHP8, C297S); assay: as above; conditions: SEC; 100 µM CP1
T3 construct: His6 (N, cleaved yes); made in house; host or cells: Escherichia coli BL21 (DE3)
T3 sequence (Q8CHP8 1-321 C297S): T1 sequence (Q8CHP8 1-321) with C297S
Description: as §1, §2, §3, §4, §5

PGP^172FDPH>YDEQ = molecular target: T4, PGP^172FDPH>YDEQ (Mus musculus, UniProt Q8CHP8, F172Y/H175Q/P174E); conditions: read-out: enzyme activity in presence of CP1 relative to DMSO control (1), mPGP-172FDPH>172YDEQ
T4 sequence (Q8CHP8 1-321 F172Y/P174E/H175Q): T1 sequence (Q8CHP8 1-321) with F172Y, P174E, H175Q

NT5C1A = molecular target: T5, NT5C1A (Homo sapiens, UniProt Q9BXI3); assay: In vitro phosphatase activity assay, NT5C1A (AMP); type: biochemical; conditions: DMSO control = 100, read-out: NT5C1A activity on AMP in presence of CP relative to DMSO controls
T5 construct: purchased Origene #TP324617
T5 sequence (Q9BXI3 1-368): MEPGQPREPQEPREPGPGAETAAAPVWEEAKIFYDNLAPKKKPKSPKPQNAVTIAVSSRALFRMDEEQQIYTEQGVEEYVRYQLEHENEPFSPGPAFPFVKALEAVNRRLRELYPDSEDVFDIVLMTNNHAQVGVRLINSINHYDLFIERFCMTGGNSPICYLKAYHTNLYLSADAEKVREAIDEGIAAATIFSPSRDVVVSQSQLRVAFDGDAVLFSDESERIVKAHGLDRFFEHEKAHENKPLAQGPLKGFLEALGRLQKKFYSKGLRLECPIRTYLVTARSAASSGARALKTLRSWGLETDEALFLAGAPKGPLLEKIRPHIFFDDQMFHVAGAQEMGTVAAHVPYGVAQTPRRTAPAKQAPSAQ
Description: Purified human NT5C1A (NM_032526, #TP324617) and purified human PHOSPHO1 (NM_178500, #TP314434) were from Origene. […] Data were analyzed with GraphPad Prism 7.04. […] Data are mean values ± S.E.M. of n=3 independent experiments.

In the case of O=C(Nc1ccccc1C(=O)O)c1ccc(Oc2ccc(C(=O)Nc3ccccc3C(=O)O)cc2)cc1 [CP1], the fluorescence intensity (HT1080 cells; CP1 10µM) is reported as 73536.5 arbitrary units and 54985.5 arbitrary units and 58790.8 arbitrary units, the fluorescence intensity (HT1080 cells; CP1 33 µM) is reported as 67669 arbitrary units and 60068 arbitrary units and 61386.5 arbitrary units and the fluorescence intensity (HT1080 cells; CP1 100 µM) is reported as 68775 arbitrary units and 63101.8 arbitrary units and 70832.2 arbitrary units. The fluorescence intensity (HT1080 cells; CP1 200 µM) was 68392.2 arbitrary units and 53769.5 arbitrary units, the cytotoxicity (HT1080 cells; HT1080 cells, 100 µM, 24 h) was “not cytotoxic” and the “inhibition of mPGP activity at 40 µM CP compared to DMSO control (%)” value (murine PGP; 40 µM CP, single experiments Exp #1-3) was 92.9348% and 99.7175% and 99.6139%. The remaining activity at 8 µM (murine PGP; CP log[M] -5.09691, read-out: mPGP activity in presence of CP relative to DMSO controls, mPGP on PG (norm.)) was 1.61%, the remaining activity at 2 µM (murine PGP; CP log[M] -5.69897, read-out: mPGP activity in presence of CP relative to DMSO controls, mPGP on PG (norm.)) was 11.3% and the remaining activity at 1 µM (murine PGP; CP log[M] -6, read-out: mPGP activity in presence of CP relative to DMSO controls, mPGP on PG (norm.)) was 24.7%. It also gave a remaining activity at 0.5 µM (murine PGP; CP log[M] -6.30103, read-out: mPGP activity in presence of CP relative to DMSO controls, mPGP on PG (norm.)) of 35.5%, a remaining activity at […] (murine PGP; CP log[M] -6.60206, read-out: mPGP activity in presence of CP relative to DMSO controls, mPGP on PG (norm.)) of 66.1% and a remaining activity at 0.125 µM (murine PGP; CP log[M] -6.90309, read-out: mPGP activity in presence of CP relative to DMSO controls, mPGP on PG (norm.)) of 76.3%. The remaining activity at 0.0625 µM (murine PGP; CP log[M] -7.20412, read-out: mPGP activity in presence of CP relative to DMSO controls, mPGP on PG (norm.)) was 88.7%, the remaining activity at 0.03125 µM (murine PGP; CP log[M] -7.50515, read-out: mPGP activity in presence of CP relative to DMSO controls, mPGP on PG (norm.)) was 93% and the remaining activity at 0.0078125 µM (murine PGP; CP log[M] -8.10721, read-out: mPGP activity in presence of CP relative to DMSO controls, mPGP on PG (norm.)) was 101%. The “max. peak height of PGP tetramer/PGP total” value [1] was 0.166 and 0.138 and 0.1887, the “effect on PGP^C297S self-association” value [2] was “did not affect” and the remaining activity at 15.85 µM (PGP^172FDPH>YDEQ; CP1 log[M] -4.80, Exp #1-#3) was 82%. The remaining activity at 7.943 µM (PGP^172FDPH>YDEQ; CP1 log[M] -5.10, Exp #1-#3) was 88%, the remaining activity at 3.981 µM (PGP^172FDPH>YDEQ; CP1 log[M] -5.40, Exp #1-#3) was 86% and the remaining activity at 1.995 µM (PGP^172FDPH>YDEQ; CP1 log[M] -5.70, Exp #1-#3) was 98%. The remaining activity at 1 µM (PGP^172FDPH>YDEQ; CP1 log[M] -6.00, Exp #2-#3) was 97%, the remaining activity at 0.5012 µM (PGP^172FDPH>YDEQ; CP1 log[M] -6.30, Exp #1-#3) was 88% and the remaining activity at 0.2512 µM (PGP^172FDPH>YDEQ; CP1 log[M] -6.60, Exp #1-#3) was 92%. It also gave a remaining activity at 0.1259 µM (PGP^172FDPH>YDEQ; CP1 log[M] -6.90, Exp #1-#3) of 86%, a remaining activity at 80 µM (NT5C1A; CP log[M] -4.09691) of 12.2% and a remaining activity at 60 µM (NT5C1A; CP log[M] -4.22185) of 13.1%. It also gave a remaining activity at 50 µM (NT5C1A; CP log[M] -4.30103) of 13.1%, a remaining activity at 40 µM (NT5C1A; CP log[M] -4.39794) of 16.3% and a remaining activity at 30 µM (NT5C1A; CP log[M] -4.52288) of 38.9%. It also gave a remaining activity at 25 µM (NT5C1A; CP log[M] -4.60206) of 50.7%, a remaining activity at 20 µM (NT5C1A; CP log[M] -4.69897) of 57% and a remaining activity at 15 µM (NT5C1A; CP log[M] -4.82391) of 83.3%. The remaining activity at 10 µM (NT5C1A; CP log[M] -5) was 90.5%, the remaining activity at 5 µM (NT5C1A; CP log[M] -5.30103) was 104% and the remaining activity at […] (NT5C1A; CP log[M] -5.60206) was 86.9%.
